Data: patent US20090326008A1, “NF-kappa B Inhibitor” (priority 2006, published 2009)

What was measured:
Assay type in all cases: cell-based, human
NF-κB = test: NF-kappaB reporter assay (pNF-kappaB-SEAP) in IL-1β-stimulated MKN-45 cells; settings: IL-1β 2 ng/mL for 6 hours, DMSO (0.05%) control = 1.00, triplicate
Description: pNF-kappaB-SEAP was obtained from Clonetech Laboratories Inc.
Cryopreserved MKN-45 cells (product of JCRB (Japanese Collection of Research Bioresources)) were thawed and cultured in a standard medium in an incubator (37° C., 5% CO2). Every three to five days, the cells were recovered by treatment with Trypsin-EDTA, then adequately diluted and subcultured. MKN-45 cells subcultured two or more times with a survival rate of 95% or more were used in each experiment.
The subcultured MKN-45 cells were harvested using Trypsin-EDTA solution, and the number of viable cells was counted. The cells were suspended in a standard medium to yield a 1.5×10^5 cells/mL suspension. A 24-well plate was seeded with 500 μL/well of the cell suspension, and the cells were cultured in an incubator (37° C., 5% CO2).
The day after seeding, transfection was performed according to the following protocol.
(4.1) Preparation of Plasmid Solution 4 μL of 0.1 μg/μL pNFkappaB-SEAP was placed into each well and diluted with 50 μL of OPTI-MEM I (product of Invitrogen Japan K.K.) by mixing by inversion.
1 μL of Lipofectamine 2000 reagent (product of Invitrogen) was placed into each well and diluted with 50 μL of OPTI-MEM I (product of Life Technologies Inc.) by mixing by inversion. The mixture was allowed to stand at room temperature for 5 to 10 minutes to prepare a Lipofectamine dilution.
The plasmid solution and the Lipofectamine dilution were mixed by inversion and allowed to stand at room temperature for 20 to 30 minutes to prepare a transfection mixture.
The culture medium was removed from the 24-well plate by suction. While care was taken not to dry the subcultured MKN-45 cells, the inner surface of the wells was washed with 1 mL/well of PBS. After the medium was replaced with 500 μL/well of OPTI-MEM I (product of Life Technologies Inc.), 100 μL/well of the transfection mixture was added, and the cells were cultured in a incubator (37° C., 5% CO2). After about 5 hours of incubation, the medium was replaced with a standard medium, and the cells were further cultured in a CO2 incubator (37° C., 5% CO2) until the following day.
On the following morning, the culture medium supernatant was removed by suction and replaced with 1 mL/well of the test compound solution or control solution diluted with a standard medium. The cells were cultured in a CO2 incubator (37° C., 5% CO2) for 1 hour. Each experiment was performed in triplicate.
200 ng/mL IL-1β was added in an amount of 10 μL/well (final concentration: 2 ng/mL), and the cells were cultured in a CO2 incubator (37° C., 5% CO2) for 6 hours.
A reporter assay was performed using Reporter Assay Kit-SEAP (product of Toyobo Co.) according to the manufacturer's protocol.
More specifically, 500 μL of the culture broth was transferred into a tube and centrifuged at 15,000 rpm for 5 minutes at 4° C. The supernatant was transferred into a 96-well white plate. The positive control included in the Reporter Assay Kit-SEAP, and a standard medium as a blank control were each added in an amount of 20 μL/well to the 96-well white plate. Further, an inhibitor for inhibiting the AP activity of the MKN-45 cells was added in an amount of 20 μL/well. After sealing the plate, the contents were mixed well. The plate was placed into a CO2 incubator (37° C., 5% CO2) and allowed to stand for 30 minutes. Subsequently, the plate was allowed to stand on ice for 1 minute, followed by addition of 160 μL/well of Lumi-Phos Plus (a chemiluminescent substrate, product of Lumigen Inc.). The plate was sealed again and placed in a light-shielded state into a CO2 incubator (37° C., 5% CO2). After the plate was allowed to stand for 15 to 30 minutes, luminescence was measured for about 5 to about 10 seconds using a luminometer.
The results of the reporter assay were expressed as Percent Control (or Inhibition), calculated according to the following formulae. The luminescence of each sample was calculated by subtracting the average of blank samples.

COX2 = test: Relative COX2 mRNA expression in IL-1β-stimulated MKN-45 cells (real-time PCR); settings: IL-1β-stimulated DMSO-treated cells = 100%, ACTB reference
Description: (§1) RNA was extracted from the cells used in Example 2 according to the manufacturer's protocol for ABI Prism 6100 Nucleic Acid PrepStation (a nucleic acid isolation system, product of Applied Biosystems). More specifically, after removal of the culture supernatant and washing with 1 mL of PBS, 250 μL of Nucleic Acid Purification Lysis Solution (Part No. 4305895, Applied Biosystems) was added, and then agitated using a shaker for 2 to 3 minutes. The Lysis Solution containing the cell lysate was collected, and the total amount was transferred to the wells of RNA Purification Tray (Part No. 4305673, Applied Biosystems), which had been pre-wet with 40 μL of Nucleic Acid Purification Wash Solution I (Part No. 4305891, Applied Biosystems) beforehand. Aspiration (20% pressure) was performed for 2 minutes to adsorb the sample onto the RNA Purification Tray, followed by sequentially adding and aspirating (20% pressure, 2 min.) 500 μL of Wash Solution I, Nucleic Acid Purification (Part No. 4305891, Applied Biosystems), 400 μL of Wash Solution II, Nucleic Acid Purification (Part No. 4305890, product of Applied Biosystems), 400 μL of the Wash Solution II, and 300 μL of the Wash Solution II in that order. Aspiration (90% pressure) was performed for 5 minutes to remove the water content from the RNA Purification Trays. After addition of 150 μL of Elution Solution, Nucleic Acid Purification (Part No. 4305893, product of Applied Biosystems), aspiration (20% pressure) was performed for 2 minutes, while collecting the outflow. This was used as collected RNA solution.
(§2) Absorbance of the collected RNA solution at 260 nm was measured using a microplate spectrophotometer (“SpectraMax Plus”, product of Molecular Devices) with an analysis software (“SOFTmaxPRO ver.3.1.2”, product of Molecular Devices), and the RNA concentration was determined from the absorbance. Likewise, absorbance at 280 nm was measured and the purity of the RNA was determined using the analysis software.
(§3) cDNA was synthesized according to the manufacturer's protocol for TaqMan® Reverse Transcription Reagents (Part No. N808-0234, product of Applied Biosystems). More specifically, about 0.5 μg of RNA, 2.5 μL of 10×RT buffer, 5.5 μL of MgCl2 solution, 5 μL of dNTP mixture, 1.25 μL of random hexamer (primers), 0.5 μL of RNase inhibitor, and 0.63 μL of MultiScribe Reverse Transcriptase (product of Applied Biosystems) were added to each collected RNA sample in a tube, and DEPC-treated water was added to make a total volume of 25 μL and stirred. A reaction consisting of 25° C. for 10 minutes, 48° C. for 30 minutes, and 95° C. for 5 minutes was performed using a PCR thermal cycler (“TaKaRa PCR Thermal Cycler Dice”, product of Takara Bio Inc.) to prepare a cDNA solution.
(§4) PCR was performed according to the manufacturer's protocol for TaqMan® Gene Expression Assays (product of Applied Biosystems). More specifically, 5 μL of TaqMan® Fast Universal PCR Master Mix (product of Applied Biosystems), 0.5 μL of TaqMan® Gene Expression Assays for the target gene (gene-specific probe and primer sets, product of Applied Biosystems), and 4.5 μL of the above-obtained cDNA solution were added to each sample and stirred. A PCR reaction consisting of heating at 95° C. for 20 seconds, followed by 40 cycles consisting of heating at 95° C. for 3 seconds and annealing and extension at 60° C. for 30 seconds was performed using a real-time PCR device (“Applied Biosystems 7500 Real-Time PCR System”) with SDS v1.4 Software (product of Applied Biosystems). Threshold cycle (Ct) values were calculated using the software.
(§5) The Assay IDs of the TaqMan® Gene Expression Assays for the target genes used are as follows:
(§6) The expression level of each gene was determined according to the following formula using the level of ACTB as a reference standard.
(§7) (Relative mRNA expression level)=2̂−{(Ct value of the target gene)−(Ct value of ACTB)} […]

TNFα = test: Relative TNFα mRNA expression in IL-1β-stimulated MKN-45 cells (real-time PCR); settings: IL-1β-stimulated DMSO-treated cells = 100%, ACTB reference
Description: as §1, §2, §3, §4, §5, §6, §7

IL-8 = test: Relative IL-8 mRNA expression in IL-1β-stimulated MKN-45 cells (real-time PCR); settings: IL-1β-stimulated DMSO-treated cells = 100%, ACTB reference
Description: as §1, §2, §3, §4, §5, §6, §7

Compound | NF-kappaB reporter (SEAP luminescence) IL-1b(+) mean, relative to control (NF-κB) | COX2 relative mRNA expression level, Mean (COX2) [%] | TNFa relative mRNA expression level, Mean (TNFα) [%] | IL-8 relative mRNA expression level, Mean (IL-8) [%]
O=C1NC(=O)C(Cc2cccc3c2CCC(=O)N3Cc2ccc(Br)cc2)S1 (stereo not shown) [Test Compound 134] | 0.46 | 33.1 | 36.6 | 55.4
COc1ccc(CC2SC(=O)NC2=O)c2c1N(Cc1ccc(Br)cc1)C(=O)CC2 (stereo not shown) [Test Compound 123] | 0.46 | 28.6 | 28.5 | 48.3
COc1ccc(CC2SC(=S)NC2=O)c2c1N(CCOc1ccccc1)C(=O)CC2 (stereo not shown) [Test Compound 981] | 0.68 | 37.8 | 75.7 | 70.4
COC(=O)c1ccc(CN2C(=O)CCc3c(CC4SC(=O)NC4=O)ccc(OC)c32)cc1 (stereo not shown) [Test Compound 025] | 0.58 | 38.3 | 53.0 | 59.9
COc1ccc(CC2SC(=O)NC2=O)c2c1N(CCCC(=O)Nc1ccccc1)C(=O)CC2 (stereo not shown) [Test Compound 608] | 0.71 | 42.4 | 30.8 | 36.5
Cc1ccc(CC(=O)N2CCC(CCN3C(=O)CCc4c(CC5SC(=O)NC5=O)cccc43)CC2)cc1 (stereo not shown) [Test Compound 616] | 0.57 | 26.3 | 31.4 | 35.3
COc1ccc(CC2SC(=S)NC2=O)c2c1N(CC1CC1)C(=O)CC2 (stereo not shown) [Test Compound 980] | 0.63 | 53.8 | 98.0 | 79.4
O=C1NC(=S)SC1Cc1cccc2c1CCC(=O)N2Cc1ccc2ccccc2c1 (stereo not shown) [Test Compound 996] | 0.43 | 31.3 | 41.3 | 50.1
COc1ccc(CC2SC(=O)NC2=O)c2c1N(Cc1ccc(NC(=O)C3CCCCC3)cc1)C(=O)CC2 (stereo not shown) [Test Compound 225] | 0.49 | 32.9 | 44.6 | 50.0
O=C1NC(=O)C(Cc2ccc3c(c2)CCC(=O)N3Cc2ccc(-c3ccccc3)cc2)S1 (stereo not shown) [Test Compound 186] | 0.67 | 29.7 | 70.8 | 67.7
Cc1ccc(CN2C(=O)CCc3c(CC4SC(=S)NC4=O)cccc32)cc1 (stereo not shown) [Test Compound 993] | 0.59 | 27.6 | 46.8 | 45.6
COc1ccc(CC2SC(=O)NC2=O)c2c1N(Cc1ccc(NC(=O)OCc3ccccc3)cc1)C(=O)CC2 (stereo not shown) [Test Compound 234] | 0.67 | 24.0 | 32.4 | 28.3
COc1ccc(CC2SC(=O)NC2=O)c2c1N(Cc1ccc(NS(C)(=O)=O)cc1)C(=O)CC2 (stereo not shown) [Test Compound 131] | 0.49 | 80.9 | 71.3 | 77.9
